Assay results published in PMC6348423, “Rapid Mapping of Protein Interactions Using Tag‐Transfer Photocrosslinkers” (Angewandte Chemie (International Ed. in English), 2018).
Peptide text beside a SMILES is read from it. * marks the point of attachment. X2 = CC1(CCS*)N=N1

B1: OmpA: E. coli β-barrel outer membrane protein, substrate of the periplasmic chaperone Skp (protein, UniProt P0A910 22-346, looked up)
Outer membrane protein A: APKDNTWYTGAKLGWSQYHDTGFINNNGPTHENQLGAGAFGGYQVNPYVGFEMGYDWLGRMPYKGSVENGAYKAQGVQLTAKLGYPITDDLDIYTRLGGMVWRADTKSNVYGKNHDTGVSPVFAGGVEYAITPEIATRLEYQWTNNIGDAHTIGTRPDNGMLSLGVSYRFGQGEAAPVVAPAPAPAPEVQTKHFTLKSDVLFNFNKATLKPEGQAALDQLYSQLSNLDPKDGSVVVLGYTDRIGSDAYNQGLSERRAQSVVDYLISKGIPADKISARGMGESNPVTGNTCDNVKQRAALIDCLAPDRRVEIEVKGIKDVVTQPQA

Assays:
MCL-1 = target: T1, MCL-1 (Homo sapiens, UniProt Q07820); test: Photo-crosslinking of labelled BID80-102 peptides to MCL-1, SDS-PAGE band intensity; settings: 20 μM labelled peptide + 20 μM MCL-1, TBS pH 7.6; 365 nm UV LED, 1 min; SDS-PAGE band intensity of crosslinked vs non-crosslinked MCL-1; value ± SD of three repeats; SD
T1 construct: made in house
T1 sequence (Q07820 whole entry): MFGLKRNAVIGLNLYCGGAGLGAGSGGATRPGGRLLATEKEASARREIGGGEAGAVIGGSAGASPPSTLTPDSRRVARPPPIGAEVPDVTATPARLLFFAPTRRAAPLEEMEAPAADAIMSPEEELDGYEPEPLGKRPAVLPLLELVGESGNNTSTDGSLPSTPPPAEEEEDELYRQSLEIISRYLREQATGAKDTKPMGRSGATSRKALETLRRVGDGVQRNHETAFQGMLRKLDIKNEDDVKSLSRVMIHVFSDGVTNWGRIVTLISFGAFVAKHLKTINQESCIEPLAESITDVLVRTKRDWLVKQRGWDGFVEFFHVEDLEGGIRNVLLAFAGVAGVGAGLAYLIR
Experimental: Cross-linking experiments
For all irradiation methods, samples were prepared in the following way. For crosslinking of MCL-1/BID80-102, 20 μL of a solution containing MTS-diazirine or MTS-TFMD labelled BID80-102 peptide (20 μM) and MCL-1 (20 μM) in buffer 50 mM Tris-HCl, 150 mM NaCl (TBS) pH 7.6 was prepared. […]
This was then placed under a covered LF-206.LS 6 W 365 nm lamp (Uvitec) at a distance of 12 mm from the source for different times up to 30 min. For UV LED chip experiments, acrylic chip chambers were washed with TBS pH 7.6 buffer and 33 µL of sample was added. These were then clamped into the chip holder and irradiated with the 365 nm LED for up to 30 s. A pipette was used to remove the sample from the chip via the lower filling hole. For UV LED tube experiments, 30-130 µL of sample was added to a thin-walled PCR tube and placed inside a 0.5 mL microfuge tube which itself was in a 1.5 mL microfuge tube that had been wrapped in aluminium foil (to reflect the UV irradiation within the containers). Samples were irradiated with the 365 nm LED for 30 s. To crosslink MCL-1 BID80-102, samples were irradiated using this apparatus for 1 min.
Separation and enrichment of cross-linked products
To separate and/or enrich crosslinked samples three methods were used as described in the main text.
Table S1: Affinity (EC50) of labelled BID80-102 peptides to MCL-1 as determined by competition fluorescence anisotropy assay. Crosslinking efficiency of labelled BID80-102 peptides to MCL-1 based on the SDS-PAGE band intensity of crosslinked and non-crosslinked […]
The values and standard deviations are results of three repeats. n.d = not determined as binding was too weak to enable an accurate fit to be obtained.
BID peptide EC50 for affinity to MCL-1 (nM) Crosslinked Mcl-1 (%)

Skp = settings: read-out: KD of Skp/OmpA complex; cited from earlier work

| Molecule | Crosslinked Mcl-1 (crosslinking efficiency) (MCL-1) | Kd (Skp) |
| --- | --- | --- |
| CC[C@H](C)[C@H](NC(=O)[C@H](CC(N)=O)NC(=O)[C@H](CCCNC(=N)N)NC(=O)[C@@H](NC(=O)[C@@H](NC(=O)[C@H](CC(=O)O)NC(=O)[C@H](CCC(=O)O)NC(C)=O)[C@@H](C)CC)[C@@H](C)CC)C(=O)N[C@@H](C)C(=O)N[C@@H](CCCNC(=N)N)C(=O)N[C@@H](Cc1c[nH]cn1)C(=O)N[C@@H](CC(C)C)C(=O)N[C@@H](C)C(=O)N[C@@H](CCC(N)=O)C(=O)N[C@H](C(=O)NCC(=O)N[C@@H](CC(=O)O)C(=O)N[C@@H](CO)C(=O)N[C@@H](CCSC)C(=O)N[C@@H](CC(=O)O)C(=O)N[C@@H](CCCNC(=N)N)C(=O)N[C@@H](CSSCc1ccc(C2(C(F)(F)F)N=N2)cc1)C(=O)N[C@H](C(=O)N[C@@H](Cc1c[nH]c2ccccc12)C(N)=O)[C@@H](C)CC)C(C)C [MTS-TMFD labelled S100C] | 31 ± 3% |  |
| CC[C@H](C)[C@H](NC(=O)[C@H](CO)NC(=O)[C@H](CCCNC(=N)N)NC(=O)[C@H](CC(=O)O)NC(=O)[C@H](CCSC)NC(=O)[C@H](CO)NC(=O)[C@H](CC(=O)O)NC(=O)CNC(=O)[C@@H](NC(=O)[C@H](CCC(N)=O)NC(=O)[C@H](C)NC(=O)[C@H](CC(C)C)NC(=O)[C@H](Cc1c[nH]cn1)NC(=O)[C@H](CCCNC(=N)N)NC(=O)[C@H](C)NC(=O)[C@H](CSSCCC1(C)N=N1)NC(=O)[C@H](CC(N)=O)NC(=O)[C@H](CCCNC(=N)N)NC(=O)[C@@H](NC(=O)[C@@H](NC(=O)[C@H](CC(=O)O)NC(=O)[C@H](CCC(=O)O)NC(C)=O)[C@@H](C)CC)[C@@H](C)CC)C(C)C)C(=O)N[C@@H](Cc1c[nH]c2ccccc12)C(N)=O [MTS-diazirine labelled I86C] (Ac-EDIIRNC(X2)ARHLAQVGDSMDRSIW-NH2) | 16 ± 2% |  |
| CC[C@H](C)[C@H](NC(=O)[C@H](CC(N)=O)NC(=O)[C@H](CCCNC(=N)N)NC(=O)[C@@H](NC(=O)[C@@H](NC(=O)[C@H](CC(=O)O)NC(=O)[C@H](CCC(=O)O)NC(C)=O)[C@@H](C)CC)[C@@H](C)CC)C(=O)N[C@@H](C)C(=O)N[C@@H](CCCNC(=N)N)C(=O)N[C@@H](Cc1c[nH]cn1)C(=O)N[C@@H](CC(C)C)C(=O)N[C@@H](C)C(=O)N[C@@H](CCC(N)=O)C(=O)N[C@@H](CSSCCC1(C)N=N1)C(=O)NCC(=O)N[C@@H](CC(=O)O)C(=O)N[C@@H](CO)C(=O)N[C@@H](CCSC)C(=O)N[C@@H](CC(=O)O)C(=O)N[C@@H](CCCNC(=N)N)C(=O)N[C@@H](CO)C(=O)N[C@H](C(=O)N[C@@H](Cc1c[nH]c2ccccc12)C(N)=O)[C@@H](C)CC [MTS-diazirine labelled V93C] (Ac-EDIIRNIARHLAQC(X2)GDSMDRSIW-NH2) | 9 ± 3% |  |
| B1 |  | 22 ± 16 nM |
